# Assays:
# Half-life in vivo = conditions: mice
# Description: This is believed to be due to rapid oxidation of the sulfur functional groups in K306 by cytochrome P450 enzymes which are prevalent in mice. […] The thiophene is still a concern, however, as this heterocycle is known to undergo oxidation by CYP enzymes and can lead to toxic metabolites.
# [1] = target: T1, recombinant human truncated SHIP1 (tSHIP1) (Homo sapiens, UniProt Q92835); test: Malachite Green Phosphatase Release Assay (SHIP1 phosphatase activity); assay type: biochemical; conditions: for SHIP1 activation, increase in the malachite green assay: initial testing
# T1 construct: tSHIP1 (SHIP1, residues 397-864) was amplified from pET24TEV-tSHIP1; His tag; made in house; host or cells: E. coli BL21
# T1 sequence (Q92835 397-864): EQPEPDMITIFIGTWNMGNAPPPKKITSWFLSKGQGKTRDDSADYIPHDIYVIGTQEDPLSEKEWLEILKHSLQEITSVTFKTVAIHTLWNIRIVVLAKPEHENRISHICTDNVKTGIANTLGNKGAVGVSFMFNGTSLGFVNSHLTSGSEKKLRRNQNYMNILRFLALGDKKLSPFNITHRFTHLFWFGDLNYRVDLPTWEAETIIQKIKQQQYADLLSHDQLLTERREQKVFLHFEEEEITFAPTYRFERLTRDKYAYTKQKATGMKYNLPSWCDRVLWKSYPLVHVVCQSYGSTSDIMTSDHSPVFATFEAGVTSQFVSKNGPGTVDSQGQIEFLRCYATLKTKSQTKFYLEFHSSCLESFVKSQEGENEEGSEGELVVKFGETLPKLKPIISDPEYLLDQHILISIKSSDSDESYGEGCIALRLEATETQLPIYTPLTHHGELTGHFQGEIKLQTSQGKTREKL
# Method in brief: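 Truncated SHIP1 (residues 397-864, His-tagged, E. coli-expressed) was preincubated 2 min at room temperature with compound in pH 7.4 Hepes buffer with MgCl2/EDTA. 100 μM PI(3,4,5)P3-diC8 was then added and the reaction run 20 min at 37 °C. Phosphate release was read with malachite green at 620 nm, as % of DMSO control activity.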
compound,measurement,setting,value
"Cc1sc(S(=O)(=O)N2CCSCC2)cc1NC(=O)CNS(=O)(=O)c1ccc(F)cc1 [Compound K306, 2-(4-Fluorobenzenesulfonamido)-N-[2-methyl-5-(thiomorpholine-4-sulfonyl)thiophen-3-yl]acetamide]",Half-life in vivo,Half-life in vivo,short-half life in vivo
same,"Phosphatase activity in the Malachite Green Assay, analog concentration 125 μM","[1]; 125 μM analog, 100 μM PI(3,4,5)P3-diC8 substrate, normalized to vehicle control (DMSO) = 100%",95%
same,"Phosphatase activity in the Malachite Green Assay, analog concentration 250 μM","[1]; 250 μM analog, 100 μM PI(3,4,5)P3-diC8 substrate, normalized to vehicle control (DMSO) = 100%",106%
same,"Phosphatase activity in the Malachite Green Assay, analog concentration 500 μM","[1]; 500 μM analog, 100 μM PI(3,4,5)P3-diC8 substrate, normalized to vehicle control (DMSO) = 100%, >100% activation, <100% inhibition",133%
same,"SHIP1 activation, increase in the malachite green assay",[1]; tested at 250 μM,6%
same,"SHIP1 activation, increase in the malachite green assay",[1]; tested at 500 μM,33%

# — patent publication US20260199365A1, “BIS-SULFONAMIDE SHIP1 ACTIVATORS” (The Research Foundation for the State University of New York, priority 2022, published 2026)
